Here are results for 1 molecule from patent US10786475B2, “Method for preventing, treating, or improving fatty liver by administering effective amounts of azelaic acid to a subject” (Korea University Research and Business Foundation, priority 2018, dated 2020).

Series [1] relates to mouse primary hepatocytes. The series is described as follows: Fatty acid decomposition gene markers in mouse primary hepatocyte. The series is classed as cell-based. The procedure: To reconfirm the liver tissue lipolytic effect of an AzA, an additional experiment was performed using a mouse primary hepatocyte. […] Therefore, it was reconfirmed that an AzA stimulates fatty acid oxidation, thereby treating/preventing a fatty liver lesion.

Another series deals with 3T3-L1 adipose cells. The series is described as follows: MTT cytotoxicity assay in 3T3-L1 adipose cells. It counts as cell-based, mouse. Particulars: 0 to 500 μM AzA, compared with control group. The procedure: The cytotoxicity test for 3T3-L1 adipose cells was performed by a tetrazolium-based colorimetric (MTT) method. The MTT assay is a method for evaluating cytotoxicity by measuring absorbance at a suitable wavelength (usually at 500 to 600 nm) based on a metabolic process, in which a dehydrogenase in mitochondria of intact cells reduces a yellow water-soluble tetrazolium salt [3-(4,5-dimethylthiazol-2-yl)-2-5-diphenyltetrazolium bromide] (MTT) into a water-insoluble dark violet MTT formazan crystal.
For orientation: Formazan colour is commonly taken as a measure of viable cells.

In series [2] the test system is 3T3-L1 cells stimulated by LPS. The series is described as follows: IL-6 and TNF-α gene expression (qPCR) in LPS-treated 3T3-L1 adipose cells. It counts as cell-based, mouse. Particulars: LPS-treated 3T3-L1 cells differentiated into adipose cells, compared with control group. The procedure:
3T3-L1 cells, mouse pre-adipose cells were purchased from the Korean Cell Line Bank (Seoul, Korea). The 3T3-L1 cells were cultured in Dulbecco's modified Eagle's medium (DMEM) supplemented with 10% heat-inactivated bovine calf serum (Gibco, Grand Island, N.Y., USA) and 1% PEST under 5% CO2 at 37° C. The 3T3-L1 pre-adipose cells were seeded on a 6-well plate at 1×10^6 cells/well to differentiate into adipose cells, and cultured to a density of 100%. After 2 days, the cultured 3T3-L1 pre-adipose cells were incubated in DMEM containing 10% fetal bovine serum (FBS) and an MDI solution (0.5 mM IBMX, 0.5 μM dexamethasone and 10 μg/mL insulin) for 3 days. Subsequently, the treated cells were cultured in DMEM containing 10% FBS and 10 μg/mL insulin, and the formation of lipid droplets in cells and the degree thereof were confirmed, and based on this, the differentiation into adipose cells was confirmed. To confirm the expression of IL-6 and TNF-α genes, qRT-PCR was performed by the same methods described in Examples 7-4 and 7-5.
(In general: In qPCR the cycle at which signal appears reflects the starting amount.)

The subject of series [3] is Hepa1c1c-7 cells stimulated by LPS. The series is described as follows: GPCR 10-pathway reporter assay in LPS-induced Hepa1c1c-7 cells. It counts as cell-based, mouse. The settings on record: 100 ng/mL LPS 1 hour, then 50 μM AzA 6 hours. How it is done: Mouse hepatocytes, i.e., Hepa1c1c-7 cells were seeded on a 96 well-plate at 1×10^4 cells/well and cultured for 24 hours, and transfected with a construct including a transcription factor promoter and a luciferase for 8 hours. The experiment was performed on two groups, i.e., a group with inflammation in hepatocytes caused by LPS and a group not being treated with LPS. In the non-treated control, 50 μM of AzA was treated for 6 hours, and in the experimental group, inflammation was induced by treating 100 ng/mL of LPS, the inflammation-inducing material, for 1 hour, and then 50 μM of AzA was treated for 6 hours. As a result, downstream pathway, which was activated by an AzA, was confirmed. To confirm a mechanism of an anti-inflammatory effect of an AzA, 10 transcription factors for signal transduction of GPCR were analyzed. […] Based on the Olfr544-cAMP-CREB signal transduction process of an AzA, the change of a complicated downstream signal transduction pathway system in response to GPCR activation and inhibition was examined using 10 types of transcription factors through a GPCR 10-pathway reporter assay. A GPCR 10-signal transduction pathway measurement is a method for assessing a representative signal pathway of GPCR using a reporter gene assay method, and the change of a complicated downstream signal transduction pathway system in response to the activation and inhibition of GPCR can be assessed using 10 types of transcription factors. A GPCR Signaling 10-pathway Reporter Array (QIAGEN, Netherlands) used in this example includes a transcription factor inducing downstream signal transduction and a firefly luciferase construct in each experimental group, and is based on a principle, in which luciferase activity is measured by continuously expressing a Renilla luciferase construct. The 10 types of transcription factors are as follows: ATF2/ATF3/ATF4, CREB, ELK1/SRF, FOS/JUN, MEF2, GLI, FOXO, STAT3, NFAT, and NFκB. In this example, the luciferase activity was measured using a dual luciferase assay kit (Promega, USA) and Victor™ X2 (PerkinElmer, CA, USA).
A general note: Reporter assays use an easily measured gene product as a stand-in for the process of interest.

The test system of the next series is Olfr544. The series is described as follows: cAMP, calcium and PKA activity in Hepa1c1c-7 cells (Olfr544 activation). It counts as cell-based, mouse. How it is done: A cAMP assay estimates a production level of cAMP, which is a secondary messenger material of a GPCR receptor activated by a ligand, using a cAMP standard calibration curve. A 96 well-plate included in a cAMP Assay ELISA kit (Enzo Life science, New York, USA) was coated with a GxR IgG antibody, and cAMP in a blue solution for plotting the standard calibration curve, binds with alkaline phosphatase and turns into yellow color by the rabbit antibody. When pNpp substrate is added into the wells bound with cAMP, alkaline phosphatase is activated to cause the color changes, and a cAMP concentration may be measured through colorimetric quantification at a wavelength of 405 nm. In this experiment, Hepa1c1c-7 cells were seeded on a 96-well plate at 1×10^4 cells/well for differentiation, and treated with 50 μM of AzA and 1 μM of Forskolin (FSK), which is a positive control, for 18 hours, and then a cAMP concentration was measured according to the above-described method.

For the molecule `O=C(O)CCCCCCCC(=O)O` [AzA, nonanedioic acid], in series [1], the Acox1 gene marker entry is “significantly increases”, the Cpt1a gene marker entry is listed as “significantly increases” and the Ppara gene marker result is given as “significantly increases”. Further, in the series with 3T3-L1 adipose cells, the “cytotoxicity (MTT assay)” value is on record as “toxicity was not exhibited at every concentration”. In series [2], the IL-6 gene expression result is listed as “significantly decreased”. In addition, in series [3], the “CREB transcription factor activity (cAMP/PKA pathway)” value was “significant activities”, the “ELK1/SRF transcription factor activity (MAPK/ERK pathway)” value is given as “significant activities” and the “STAT3 transcription factor activity (IL-6 signaling pathway)” value is “significant activities”. For the same molecule, the “cAMP concentration in the cells” value in the series on Olfr544 (50 μM AzA, 18 hours, compared with control group) is “significantly increased”. Also, the PKA activity result in the series on Olfr544 (AzA treatment) is “significantly increased”. In addition, the “calcium concentration in the cells” value in the series on Olfr544 (compared with control group) is reported as “significantly increased”.
